Data from US10391111B2, “Composition for preventing or treating cervical cancer including gypenoside LXXV” (INTELLIGENT SYNTHETIC BIOLOGY CENTER, priority 2015, dated 2019).
“Also recorded” adds a separate entry of the source. Like-named read-outs stand apart in the source and are kept apart here.

Test system: HeLa cells
Assay: MTT assay of HeLa cell viability (cytotoxic / anti-proliferative effect)
Format: cell-based
Conditions: for inhibition of HeLa cells: 50 μM; for effect on cell division: HeLa cells, 2.5 μM to 100 μM; for CC50: read-out: LC50 values against HeLa cells
Experimental: HeLa cells were cultured in DMEM (Dulbecco's Modified Eagle's Medium) containing 10% FBS, 2 mmol/L of glutamine, 100 U/mL penicillin, and […] of streptomycin at 37° C. under 5% CO2 condition. An appropriate amount of GypLXXV in DMSO (dimethyl sulfoxide) was taken according to a final concentration as described and added to the culture medium.
In vitro chemosensitivity was measured by MTT (dimethyl thiazolyl-2,5-diphenyltetrazolium bromide) assay (CellTiter 96® Non-Radioactive Cell Proliferation Assay kit. Promega), 100 μl of HeLa cells were dispensed at a density of 10^4 cells per well in a 96-well plate, and incubated for 24 hrs. To measure anti-proliferative effects of GypLXXV. Rg3(S). Rb1 and GypXVII, 2.5 μM to 100 μM of the compound was diluted with a FBS-free medium, and added to each well. Thereafter, the cells treated with the compound were incubated at 37° C. for 48 hrs, and MTT was added to each well, followed by further incubation for 4 hrs. After aspiration of the culture medium, formazan formed from MTT was dissolved in 100 μl of solubilization/stop solution. Thereafter, optical density of each well was measured at a wavelength of 595 nm using a microplate reader. Results were expressed as LC50 values analyzed using a GraphPad Prism 5 program.

## CC(C)=CCC[C@](C)(O)[C@H]1CC[C@]2(C)[C@@H]1[C@H](O)C[C@@H]1[C@@]3(C)CC[C@H](O[C@@H]4O[C@H](CO)[C@@H](O)[C@H](O)[C@H]4O[C@@H]4O[C@H](CO)[C@@H](O)[C@H](O)[C@H]4O)C(C)(C)[C@@H]3CC[C@]12C [Rg3(S), 20(S)-ginsenoside-Rg3, reference compound]
48 hrs
  inhibition of HeLa cells: almost all HeLa cells were inhibited
  effect on cell division: decreased cell division in a dose-dependent manner
MTT assay, 48 hrs incubation, 2.5 μM to 100 μM compound, FBS-free medium
  CC50: 23.5 µM

## CC(C)=CCC[C@](C)(O[C@@H]1O[C@H](CO[C@@H]2O[C@H](CO)[C@@H](O)[C@H](O)[C@H]2O)[C@@H](O)[C@H](O)[C@H]1O)[C@H]1CC[C@]2(C)[C@@H]1[C@H](O)C[C@@H]1[C@@]3(C)CC[C@H](O)C(C)(C)[C@@H]3CC[C@]12C [GypLXXV, gypenoside LXXV]
48 hrs
  inhibition of HeLa cells: almost all HeLa cells were inhibited
HeLa cell viability, 48 hrs
  anti-cancer / anti-proliferative effect compared with the other compounds (FIG. 2): anti-proliferative activity similar to that of Rg3(S); also recorded: higher anti-cancer effects than those of Rb1 or GypXVII
  effect on cell division: decreased cell division in a dose-dependent manner
Homo sapiens, HeLa, 48 h
  CC50: 29.9 µM
